Source: patent publication US20210130826A1, “METHODS OF MODULATING ANTISENSE ACTIVITY” (IONIS PHARMACEUTICALS, INC., priority 2018, published 2021)

How the values were obtained:
Malat-1 [1] = test: MALAT-1 RNA in mouse liver by RT-qPCR; assay type: in vivo
Protocol: The following experiments were performed to determine if the effects of autophagy modulators on antisense activity in vitro can be observed in vivo. […] Mice were sacrificed at 24 hours after administration of the modified oligonucleotide and tissues were collected for analysis. […] Atg7 mRNA levels are a marker of the induction of autophagy in treated mouse livers. Results are presented as percent change of RNA, relative to PBS control treated with DMSO, normalized to mouse cyclophilin A measured using mouse primer probe set Cyclophilin-A (forward sequence [NT], designated herein as SEQ ID NO: 38; reverse sequence [NT], designated herein as SEQ ID NO: 39; probe sequence [NT], designated herein as SEQ ID NO: 40). […] Following administration of modified oligonucleotide, groups of mice were either allowed free access to chow (control) or fasted overnight (16 hr fast). Mice were sacrificed at 16 hours after administration of the modified oligonucleotide and tissues were collected for analysis. […] Atg7 mRNA levels are a marker of the induction of autophagy in treated mouse livers. Results are presented in Table 33 relative to mice treated with PBS and allowed normal access to chow. […] Mice were sacrificed at 24 hours after administration of the modified oligonucleotide and tissues were collected for analysis. […] Atg7 mRNA levels are a marker of the induction of autophagy in treated mouse livers. […] RNA was extracted from liver tissue for real-time RTPCR analysis of MALAT1 RNA expression. Primer probe set 15877 was used to measure mouse MALAT1 RNA levels. Results are presented as percent change of RNA, relative to PBS control, normalized to mouse cyclophilin A measured using mouse primer probe set Cyclophilin-A. […] RNA was extracted from liver tissue for real-time RTPCR analysis of MALAT1 RNA expression. Primer probe set 15877 was used to measure mouse MALAT1 RNA levels. Results are presented as percent change of RNA, relative to PBS control, normalized to mouse cyclophilin A measured using mouse primer probe set Cyclophilin-A.

Malat-1 [2] = test: Malat-1 RNA by RT-qPCR in A431 cells; assay type: cell-based, human; details: MOE gapmer
Protocol: RT-qPCR analysis was performed to detect RNA levels of Malat-1 using primer probe set RTS2736. Results were normalized to cyclophilin A levels (measured using HTS3936). […] Each table below represents results from an individual assay.

p62 = test: Liver protein analysis in mice: p62; assay type: in vivo; details: Table 30; mouse liver 24 h; oligonucleotide 5 mg/kg (or PBS); Treatment AZD8055 5 mg/kg at 0, 12, 22 h
Protocol: The following experiments were performed to determine if the effects of autophagy modulators on antisense activity in vitro can be observed in vivo. Groups of 3-4 8-week-old male C57bl/6J mice were administered 5 mg/kg control oligonucleotide 141923, or 5 mg/kg antisense oligonucleotide 399462. Following administration of modified oligonucleotide, mice were administered 1% DMSO or 5 mg/kg AZD8055 in 1% DMSO at three time points over 24 hours: at the time of administration of the modified oligonucleotide, and 12 and 22 hours after administration of the modified oligonucleotide. A group of control mice was administered PBS at time 0 and 1% DMSO at 0, 12, and 22 hours. Mice were sacrificed at 24 hours after administration of the modified oligonucleotide and tissues were collected for analysis.
Autophagy activation was confirmed in livers by determining suppression of mTOR kinase activity (pS6/S6 levels), determining an increased LC3B II/I ratio (a marker for the formation of autophagosomes), and determining p62 degradation (related to the clearance of autophagosomes). Protein analysis was carried out on liver tissue using standard procedures. All proteins were normalized to α-tubulin. Phospho-S6 Ribosomal Protein (Ser240/244) (2215S), and S6 Ribosomal Protein (2217S) antibodies were obtained from Cell Signaling Technology. The antibody against LC3B (ab48394) was purchased from Abcam. […]

[3] = system: mTOR kinase activity (pS6/S6 levels); test: Liver protein analysis in mice: pS6/S6; assay type: in vivo; details: Table 30; mouse liver 24 h; oligonucleotide 5 mg/kg (or PBS); Treatment AZD8055 5 mg/kg at 0, 12, 22 h
Protocol: The following experiments were performed to determine if the effects of autophagy modulators on antisense activity in vitro can be observed in vivo. […] Following administration of modified oligonucleotide, mice were administered 1% DMSO or 5 mg/kg AZD8055 in 1% DMSO at three time points over 24 hours: at the time of administration of the modified oligonucleotide, and 12 and 22 hours after administration of the modified oligonucleotide. A group of control mice was administered PBS at time 0 and 1% DMSO at 0, 12, and 22 hours. Mice were sacrificed at 24 hours after administration of the modified oligonucleotide and tissues were collected for analysis.
Protein analysis was carried out on liver tissue using standard procedures. All proteins were normalized to α-tubulin. […] The antibody against LC3B (ab48394) was purchased from Abcam. […] Antibody against P62 (GP62-C) was purchased from Progen.
A group of control mice was administered PBS at time 0 and 1% DMSO at 0, 12, and 22 hours. Mice were sacrificed at 24 hours after administration of the modified oligonucleotide and tissues were collected for analysis. […]

COc1ccc(-c2ccc3c(N4CCOC[C@@H]4C)nc(N4CCOC[C@@H]4C)nc3n2)cc1CO [AZD8055]
Malat-1 level (% relative to PBS/DMSO-treated mice) (Malat-1 [1]; Table 31, mouse liver 24 h, oligonucleotide 5 mg/kg, AZD8055 5 mg/kg at 0, 12, 22 h): 121% | effect on ASO activity in vivo (in words) (Malat-1 [1]; mouse liver, 399462 5 mg/kg, AZD8055 5 mg/kg): greater Malat1 RNA reduction | effect of autophagy modulator on modified oligonucleotide activity (in words) (Malat-1 [2]): significantly enhanced modified oligonucleotide activity | P62 (p62): 0.5 | pS6/S6 ratio [3]: 0.2
